Assay results reported in publication PMC6957492, “Assembly and substrate recognition of curli biogenesis system” (Nature Communications, 2020).
Entries after “also recorded” stand apart in the source; their conditions may differ.

Legend:
CsgE = assay: Pulldown assay of different parts of CsgA with CsgE; assay type: binding, E. coli; settings: C-terminal MBP tag on CsgA parts
CsgG [1] = assay: Pulldown assay of CsgF variants/domains with CsgG as bait; assay type: binding, E. coli K12; settings: CsgF variants with C-terminal MBP tag
Protocol: The procedure of CsgG purification was similar to that of the CsgFG complex. […] After incubation for 30 min, the mixture was loaded into a Strep-Tactin column (IBA). […] Individual CsgG and CsgF variants were purified as input by Strep-Tactin and Ni-NTA, respectively. The samples were analyzed by 15% SDS–PAGE and stained with Coomassie blue.
CsgFGBD-MBP mutant variants were purified as soluble protein by Ni-NTA. CsgG were purified as membrane protein by Strep-Tactin and substituted by amphipole A8-35. CsgFGBD-MBP mutant variants (36 μM) and CsgG nonamer (2 μM) were mixed together at 4 °C for 2 h and then incubated with equal volume of Strep-Tactin beads at 4 °C for 1 h.
Supplementary Figure 5. Interaction mode between CsgFN and CsgG. a, Interaction of CsgFN and CsgG. […] Two adjacent subunits of CsgG are shown in magenta and cyan, respectively. b, Hydrogen bonds and electrostatic interaction between CsgFN and CsgG. Hydrogen bonds are shown as red […]
aromatic residues in CsgG. d, The hydrophobic interaction between CsgFN and CsgG. e, Pulldown assay between the CsgF(C-terminal MBP tag) mutant variants and CsgG. […] Source data are provided as a Source Data file.
(§1) (1 picture or pasted object on this page, not shown here)

[2] = system: PapD2 and CpxP passage through CsgG; settings: cited from earlier work
Source text: Tyr51, Asn55, and Phe56 residues of CsgG were reported to constitute three stacked concentric rings to form a pore structure in the nonameric channel, which was essential to limit the passage of the folded proteins[22] (Fig. 2a).

CsgB [3] = assay: Pulldown assay of CsgB by CsgF domains; assay type: binding, E. coli; settings: CsgB C-terminal MBP tag, CsgF parts N-terminal MBP tag; western blot
CsgB [4] = settings: cited from earlier work
Source text: CsgFC was flexible, and was observed as fuzzy densities on the extracellular side of the CsgFG channel (Fig. 1c and Supplementary Fig. 1d), which should be responsible for interacting with CsgB. To further clarify CsgF function, we first performed a pulldown assay using CsgG as a bait. […] Therefore, CsgF ...

CsgA [5] = settings: CsgF and CsgB as baits (N-terminal MBP tag), CsgA C-terminal MBP tag
Protocol: The cells were induced with 0.5 mM IPTG for 4 h at 37 °C. […] After incubation for 20 min, the mixture was loaded to a Strep-Tactin column (IBA). The beads were washed four times with a buffer having 25 mM Tris-HCl at pH 8.0, 150 mM NaCl, and eluted in a buffer having 25 mM Tris-HCl at pH 8.0, 150 mM NaCl, and 2.5 mM desthiobiotin. […] The samples were analyzed by 15% SDS–PAGE and detected by western blotting.

CsgA [6] = settings: cited from earlier work
CsgG [7] = assay: Pulldown assay of CsgE with CsgG; assay type: binding, E. coli; settings: western blot
Protocol: The CsgE and CsgG were transformed in E. coli BL21 (DE3) strain. […] After incubation for 30 min, CsgE alone and CsgE-CsgG mixture were loaded to Strep-Tactin columns (IBA), respectively. The beads were washed for four times with a buffer having 25 mM Tris pH 8.0, 150 mM NaCl and 0.02% DDM and then eluted by an elution buffer (25 mM Tris pH 8.0, 150 mM NaCl, 0.02% DDM and 25 mM desthiobiotin). […] The samples were analyzed using 15% SDS–PAGE and detected using western blotting.

CsgG nonamer = biological target: T1, CsgG nonamer (Escherichia coli, UniProt P0AEA2); assay type: binding, E. coli K12; settings: given in reply to Reviewer #1
T1 construct: made in house; host or cells: E. coli BL21 (DE3)
T1 sequence (P0AEA2 whole entry, looked up): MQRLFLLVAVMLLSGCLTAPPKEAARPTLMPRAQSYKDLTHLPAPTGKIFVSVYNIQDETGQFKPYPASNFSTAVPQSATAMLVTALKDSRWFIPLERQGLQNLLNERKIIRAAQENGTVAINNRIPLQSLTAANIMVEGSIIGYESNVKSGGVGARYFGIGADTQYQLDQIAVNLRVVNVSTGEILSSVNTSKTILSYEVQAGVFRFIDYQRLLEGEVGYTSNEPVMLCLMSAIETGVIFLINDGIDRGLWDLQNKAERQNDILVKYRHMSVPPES
Source text: as §1
are provided as a Source Data file.

With “CsgAR1-5: five C-terminal repeating units of CsgA” the “interaction of CsgA part with CsgE in pulldown” value (CsgE) was “CsgE bound to CsgAR1-5”.

In the case of “CsgF: soluble accessory factor of the curli secretion system”, the “CsgF-CsgG interaction in pulldown” value (CsgG [1]) is given as “CsgG can pulldown both the full-length CsgF and CsgFN”, the “leakage of PapD2 and CpxP in the presence of CsgF” value [2] is given as “considerably reduced leakage” and the “pulldown of CsgB” value (CsgB [3]) is given as “full-length CsgF and CsgFC could”. For the same molecule, the “binding to CsgB” value (CsgB [4]) was “can also bind to CsgB” and the “interaction with CsgA in pulldown” value (CsgA [5]) was “did not directly interact with CsgA”.

B1: CsgE: soluble accessory factor that binds CsgG (protein)
chain: VEVEVPGLLTDHTVSSIGHDFYRAFSDKWESDYTGNLTINERPSARWGSWITITVNQDVIFQTFLFPLKRDFEKTVVFALIQTEEALNRRQINQALLSTGDLAHDEF
modifications: left off: His tag (from the Ni-NTA purification of the input), end not stated, state not stated
In the case of B1, the “inhibition of CsgA self-assembly into amyloid fibers” value (CsgA [6]) is listed as “inhibit self-assembly of CsgA into amyloid fibers”, the “interaction of CsgE with CsgG in pulldown” value (CsgG [7]) is listed as “CsgG could pull-down CsgE; also recorded: interacts with the CsgG channel” and the “CsgE-CsgG ITC interaction strength (in words)” value (CsgG nonamer) is listed as “mM level”.
